Measurements: patent US20110166078A1, “OLIGOSACCHARIDE COMPOUNDS FOR USE IN MOBILISING STEM CELLS” (ENDOTIS PHARMA, priority 2008, published 2011)

Legend:
[1] = tested on: control and VEGF-A-stimulated angiogenesis (endothelial tubules, HUVEC/NHDF co-culture); assay: In vitro angiogenesis assay (endothelial tubule formation, AngioKit); assay type: cell-based, human; conditions: 30 μM compound; anti-CD31 ELISA and AngioSys image analysis; FIGS. 13-15
Excerpt: These experiments are also known as endothelial tubule formation assays and they are used to evaluate the compound effects on in vitro angiogenesis (the neo-formation of blood vessels from pre-existing ones). This process is critical in tumour development as bloodstream brings all the necessary nutrients and oxygen to cancer cells.
The assay uses a commercially available product (AngioKit) specially designed for screening experiments. The product consists of a 24 or 96-well culture plate containing endothelial and fibroblast cells. A similar assay has been developed “in-house” using 48-well culture plates.
Endothelial cells will, on a ten-day period, develop into a branched network of endothelial tubules or “primitive” blood vessels. This process requires a co-culture with fibroblasts, these latter cells secreting essential growth factors for endothelial cells. At the end of the incubation period (about ten days), angiogenesis is monitored both by ELISA and image analysis software quantifying different blood vessel parameters (number and average length of tubules, field area, number of junctions for example). All reagents and material (except the oligosaccharide compounds, the VEGF-A and the 48-well plate AngioKits) are bought from TCS CellWorks (http://www.tcscellworks.co.uk) which provides: • 24 and 96-well plate AngioKits (including culture medium) • Anti-CD31 (a cell marker specifically expressed on endothelial cells) reagents for ELISA and tubule staining procedures. • AngioSys image analysis software
For home-made 48-well plate AngioKits, NHDF and HUVEC cells were independently purchased while TCS CellWorks culture medium and protocol were used.
The cell medium is replaced with fresh one (day 1) and cells are incubated at 37° C. with the compounds of interest (oligosaccharides and/or angiogenic proteins, such as growth factors). During the course of the experiment, the culture medium (including oligosaccharides and/or angiogenic proteins) is replaced at days 4 and 7.
At day 10, the assay is terminated by the labelling of endothelial cells by an ELISA procedure (indirect colorimetric titration of the endothelial cell number through dosage of the endothelial-specific CD31 marker) and the staining of endothelial tubules. Photographs of stained tubules are taken and analysed with the AngioSys image analysis software.
In the following assay the effects of compounds 239, 240, 246, 247, 248, 249, 252, 254, 255 and 257 on in vitro angiogenesis were measured (all compounds were added at the 30 μM concentration). […] For the data presented in FIG. 13, AngioSys image analyses are shown on FIG. 14. Photographs of endothelial tubules are shown on the side of the anti-CD31 ELISA (see FIGS. 13 and 15).

PDGF-β = PDGF-β (Homo sapiens, UniProt P01127); assay: PDGF-β/heparin competition assay by SPR (Biacore); assay type: binding; conditions: 10 nM PDGF-β, biotinylated heparin, Sensorchip C1
Protocol: (§1) Heparin or low molecular weight heparin (6 kDa) from SIGMA were biotinylated at the reducing end and immobilized on a Biacore sensorchip. Different concentrations of the compounds of the present invention were co-incubated at a fixed concentration of targets: FGF-2, PDGF-β, VEGF-A or SDF-1α for 30 minutes. The mixture was then injected onto the streptavidin control (control reference) and HP surfaces. Only free growth factor (GF) or chemokine, i.e. the target molecules not bound to compounds of the present invention, were trapped on the heparin surface. From the binding of free targets on heparin, the percentages of inhibition were calculated and then reported in function of compound concentrations. The plot was fitted with a four-parameter model and IC50 was calculated. The 0% inhibition value was obtained for the injection of the studied target in running-buffer, and the 100% inhibition value was obtained for the injection of the studied target co-incubated with 10 μM of low molecular weight heparin 6 kDa. A PDGF-β/heparin competition assay using the Biacore technology was performed using the following conditions: 10 nM PDGF-β, biotinylated heparin, Reference Streptavidin, Sensorchip C1, HBS-P, Regeneration NaCl 2M. IC50 values of compounds of the present invention were determined using the Biacore technology for the growth factor and chemokine/heparin competition assays that contained the following proteins: VEGF-A, SDF-1α, FGF-2 and PDGF-β.

FGF-2 = FGF-2 (Homo sapiens, UniProt P09038); assay: FGF-2/heparin competition assay by SPR (Biacore); assay type: binding; conditions: 10 nM FGF-2, biotinylated heparin, Sensorchip C1
Protocol: as §1, with “kDa.” for “kDa. A PDGF-β/heparin competition assay using the Biacore technology was performed using the following conditions: 10 nM PDGF-β, biotinylated heparin, Reference Streptavidin, Sensorchip C1, HBS-P, Regeneration NaCl 2M. IC50 values of compounds of the present invention were determined using the Biacore technology for the growth factor and chemokine/heparin competition assays that contained the following proteins: VEGF-A, SDF-1α, FGF-2 and PDGF-β.”
A FGF-2/heparin competition assay using the Biacore technology was performed in the following conditions: 10 nM FGF-2, biotinylated heparin, Reference Streptavidin, Sensorchip C1, PBS-T 0.02%, Regeneration NaCl 2M
(§2) IC50 values of compounds of the present invention were determined using the Biacore technology for the growth factor and chemokine/heparin competition assays that contained the following proteins: VEGF-A, SDF-1α, FGF-2 and PDGF-β.

VEGF-A = molecular target: T1, VEGF-A (Homo sapiens, UniProt P15692); assay: VEGF-A/heparin competition assay by SPR (Biacore); assay type: binding; conditions: 10 nM VEGF-A, biotinylated low molecular weight heparin, Sensorchip SA
T1 sequence (P15692 27-191 isoform P15692-4): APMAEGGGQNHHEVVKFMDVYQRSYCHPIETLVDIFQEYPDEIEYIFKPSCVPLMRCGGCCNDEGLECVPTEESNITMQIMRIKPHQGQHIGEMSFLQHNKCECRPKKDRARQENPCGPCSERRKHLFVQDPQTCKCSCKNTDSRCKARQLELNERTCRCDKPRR
Protocol: as §1, with “kDa.” for “kDa. A PDGF-β/heparin competition assay using the Biacore technology was performed using the following conditions: 10 nM PDGF-β, biotinylated heparin, Reference Streptavidin, Sensorchip C1, HBS-P, Regeneration NaCl 2M. IC50 values of compounds of the present invention were determined using the Biacore technology for the growth factor and chemokine/heparin competition assays that contained the following proteins: VEGF-A, SDF-1α, FGF-2 and PDGF-β.”
A VEGF-A/heparin competition assay using the Biacore technology was performed using the following conditions: 10 nM VEGF-A, biotinylated low molecular weight heparin, Reference Streptavidin, Sensorchip SA, HBS-P, Regeneration NaCl 2M.
as §2

SDF-1α = SDF-1α (Homo sapiens, UniProt P48061); assay: SDF-1α/heparin competition assay by SPR (Biacore); assay type: binding; conditions: 96 nM SDF-1α, biotinylated low molecular weight heparin (6 kDa), Sensorchip SA
Protocol: as §1, with “kDa.” for “kDa. A PDGF-β/heparin competition assay using the Biacore technology was performed using the following conditions: 10 nM PDGF-β, biotinylated heparin, Reference Streptavidin, Sensorchip C1, HBS-P, Regeneration NaCl 2M. IC50 values of compounds of the present invention were determined using the Biacore technology for the growth factor and chemokine/heparin competition assays that contained the following proteins: VEGF-A, SDF-1α, FGF-2 and PDGF-β.”
A SDF-1α/heparin competition assay using the Biacore technology was performed using the following conditions: 96 nM SDF-1α, biotinylated low molecular weight heparin (6 kDa), Reference Streptavidin, Sensorchip SA, HBS-P, Regeneration NaCl 2M
as §2

Structure (SMILES)	IC50 (PDGF-β) [nM]	IC50 (FGF-2) [nM]	IC50 (VEGF-A) [nM]	IC50 (SDF-1α) [nM]	inhibition of control and/or VEGF-A-stimulated angiogenesis [1]
C#CCCCOC1OC(COS(=O)(=O)[O-])C(OC2OC(C(=O)[O-])C(OC3OC(COS(=O)(=O)[O-])C(OC4OC(C(=O)[O-])C(OC5OC(COS(=O)(=O)[O-])C(OC6OC(C(=O)[O-])C(OCc7ccccc7)C(OCc7ccccc7)C6OS(=O)(=O)[O-])C(OCc6ccccc6)C5NS(=O)(=O)[O-])C(OCc5ccccc5)C4OS(=O)(=O)[O-])C(OC)C3NS(=O)(=O)[O-])C(OC)C2OS(=O)(=O)[O-])C(OC)C1NS(=O)(=O)[O-].[Na+].[Na+].[Na+].[Na+].[Na+].[Na+].[Na+].[Na+].[Na+].[Na+].[Na+].[Na+] (stereo not shown) [Compound 255]	122	36	–	–	inhibition of control and/or VEGF-A-stimulated angiogenesis
C#CCCCOC1OC(COS(=O)(=O)[O-])C(OC2OC(C(=O)[O-])C(OC3OC(COS(=O)(=O)[O-])C(OC4OC(C(=O)[O-])C(OC5OC(COS(=O)(=O)[O-])C(OC6OC(C(=O)[O-])C(OCc7ccccc7)C(OCc7ccccc7)C6OS(=O)(=O)[O-])C(OC)C5NS(=O)(=O)[O-])C(OCc5ccccc5)C4OS(=O)(=O)[O-])C(OC)C3NS(=O)(=O)[O-])C(OCc3ccccc3)C2OS(=O)(=O)[O-])C(OC)C1NS(=O)(=O)[O-].[Na+].[Na+].[Na+].[Na+].[Na+].[Na+].[Na+].[Na+].[Na+].[Na+].[Na+].[Na+] (stereo not shown) [Compound 246]	194	167	59	865	inhibition of control and/or VEGF-A-stimulated angiogenesis
C#CCCCOC1OC(COS(=O)(=O)[O-])C(OC2OC(C(=O)[O-])C(OC3OC(COS(=O)(=O)[O-])C(OC4OC(C(=O)[O-])C(OC5OC(COS(=O)(=O)[O-])C(OC6OC(C(=O)[O-])C(OC)C(OC)C6OS(=O)(=O)[O-])C(OCc6ccccc6)C5NS(=O)(=O)[O-])C(OC)C4OS(=O)(=O)[O-])C(OCc4ccccc4)C3NS(=O)(=O)[O-])C(OC)C2OS(=O)(=O)[O-])C(OCc2ccccc2)C1NS(=O)(=O)[O-].[Na+].[Na+].[Na+].[Na+].[Na+].[Na+].[Na+].[Na+].[Na+].[Na+].[Na+].[Na+] (stereo not shown) [Compound 247]	1690	> 100000	45	430	inhibition of control and/or VEGF-A-stimulated angiogenesis
C#CCCCOC1OC(COS(=O)(=O)[O-])C(OC2OC(C(=O)[O-])C(OC3OC(COS(=O)(=O)[O-])C(OC4OC(C(=O)[O-])C(OC5OC(COS(=O)(=O)[O-])C(OC6OC(C(=O)[O-])C(OC)C(OC)C6OS(=O)(=O)[O-])C(OC)C5NS(=O)(=O)[O-])C(OC)C4OS(=O)(=O)[O-])C(OC)C3NS(=O)(=O)[O-])C(OC)C2OS(=O)(=O)[O-])C(OC)C1NS(=O)(=O)[O-].[Na+].[Na+].[Na+].[Na+].[Na+].[Na+].[Na+].[Na+].[Na+].[Na+].[Na+].[Na+] (stereo not shown) [Compound 248]	28000	1660	1670	22600	inhibition of control and/or VEGF-A-stimulated angiogenesis

More lines, main results first:

IC50 (PDGF-β) [nM]	IC50 (FGF-2) [nM]	IC50 (VEGF-A) [nM]	IC50 (SDF-1α) [nM]	Structure (SMILES)	inhibition of control and/or VEGF-A-stimulated angiogenesis [1]
171	121	–	–	C#CCCCOC1OC(COS(=O)(=O)[O-])C(OC2OC(C(=O)[O-])C(OC3OC(COS(=O)(=O)[O-])C(OC4OC(C(=O)[O-])C(OC5OC(COS(=O)(=O)[O-])C(OC6OC(C(=O)[O-])C(OCc7ccccc7)C(OCc7ccccc7)C6OS(=O)(=O)[O-])C(OCc6ccccc6)C5NS(=O)(=O)[O-])C(OC)C4OS(=O)(=O)[O-])C(OC)C3NS(=O)(=O)[O-])C(OCc3ccccc3)C2OS(=O)(=O)[O-])C(OCc2ccccc2)C1NS(=O)(=O)[O-].[Na+].[Na+].[Na+].[Na+].[Na+].[Na+].[Na+].[Na+].[Na+].[Na+].[Na+].[Na+] (stereo not shown) [Compound 252]	inhibition of control and/or VEGF-A-stimulated angiogenesis
1350	187	310	3600	C#CCCCOC1OC(COS(=O)(=O)O)C(OC2OC(C(=O)O)C(OC3OC(COS(=O)(=O)O)C(OC4OC(C(=O)O)C(OCc5ccccc5)C(OCc5ccccc5)C4OS(=O)(=O)O)C(OCc4ccccc4)C3NS(=O)(=O)O)C(OCc3ccccc3)C2OS(=O)(=O)O)C(OCc2ccccc2)C1NS(=O)(=O)O (stereo not shown) [Compound 236]	–
225	136	–	–	C#CCCCOC1OC(COS(=O)(=O)[O-])C(OC2OC(C(=O)[O-])C(OC3OC(COS(=O)(=O)[O-])C(OC4OC(C(=O)[O-])C(OC5OC(COS(=O)(=O)[O-])C(OC6OC(C(=O)[O-])C(OCc7ccccc7)C(OCc7ccccc7)C6OS(=O)(=O)[O-])C(OCc6ccccc6)C5NS(=O)(=O)[O-])C(OCc5ccccc5)C4OS(=O)(=O)[O-])C(OCc4ccccc4)C3NS(=O)(=O)[O-])C(OCc3ccccc3)C2OS(=O)(=O)[O-])C(OC)C1NS(=O)(=O)[O-].[Na+].[Na+].[Na+].[Na+].[Na+].[Na+].[Na+].[Na+].[Na+].[Na+].[Na+].[Na+] (stereo not shown) [Compound 249]	inhibition of control and/or VEGF-A-stimulated angiogenesis
